Data: US20140194392A1 (priority 2013, published 2014)

Columns and labels:
A/Udorn/72 (H3N2) = test: microbe, parasite or virus in culture; format: cell-based, influenza A/Udorn/72 (H3N2); details: Influenza A virus, H3N2, MDCK, read-out: EC50 for viral plaque formation
A/WSN/33 (H1N1) = format: cell-based, influenza A/WSN/33 (H1N1)
Bac-NA^WT = Bac-NA^WT (Influenza A virus, UniProt Q6DPL2); format: biochemical
[1] = target: NA of influenza NIBRG14 (H5N1) (Influenza A virus, UniProt Q6DPL2); format: biochemical
NA of influenza NIBRG14 (H5N1), sequence (Q6DPL2 whole entry, looked up): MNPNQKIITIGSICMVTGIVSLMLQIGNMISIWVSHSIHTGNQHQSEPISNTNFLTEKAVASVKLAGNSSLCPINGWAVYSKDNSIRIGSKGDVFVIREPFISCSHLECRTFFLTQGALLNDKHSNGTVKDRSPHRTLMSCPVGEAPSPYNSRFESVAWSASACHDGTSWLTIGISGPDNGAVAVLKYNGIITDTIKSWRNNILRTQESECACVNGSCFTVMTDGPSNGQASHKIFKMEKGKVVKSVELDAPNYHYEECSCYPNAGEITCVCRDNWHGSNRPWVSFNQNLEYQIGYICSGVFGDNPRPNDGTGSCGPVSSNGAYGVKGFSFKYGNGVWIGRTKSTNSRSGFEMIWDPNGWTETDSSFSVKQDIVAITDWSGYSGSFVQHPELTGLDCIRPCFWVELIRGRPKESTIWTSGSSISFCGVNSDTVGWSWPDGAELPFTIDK

A/WSN/33 = format: cell-based, influenza A/WSN/33 (H1N1)
[2] = tested on: influenza A/WSN/33 (H1N1); test: microbe, parasite or virus in culture; format: cell-based; details: MDCK, read-out: EC50 for viral plaque formation

Bac-NA^WT, sequence (Q6DPL2 63-449 limits assumed): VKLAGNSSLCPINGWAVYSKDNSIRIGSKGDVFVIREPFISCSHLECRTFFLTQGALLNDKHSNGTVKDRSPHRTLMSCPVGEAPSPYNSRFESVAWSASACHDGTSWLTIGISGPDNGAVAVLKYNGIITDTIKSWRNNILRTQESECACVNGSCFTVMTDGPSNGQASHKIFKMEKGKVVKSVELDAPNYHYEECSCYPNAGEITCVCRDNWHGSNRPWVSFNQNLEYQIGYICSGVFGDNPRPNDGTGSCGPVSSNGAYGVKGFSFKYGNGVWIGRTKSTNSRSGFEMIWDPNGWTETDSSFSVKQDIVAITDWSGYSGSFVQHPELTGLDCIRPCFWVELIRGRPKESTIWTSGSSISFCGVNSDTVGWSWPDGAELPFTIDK

For `Nc1c(S(=O)(=O)O)cc(Nc2cccc(S(=O)(=O)CCOS(=O)(=O)O)c2)c2c1C(=O)c1ccccc1C2=O` [RB19, remazol brilliant blue R], the EC50 (A/Udorn/72 (H3N2)) was 2.8 µM, the “virus yields (fluorogenic signal of NA activity)” value (A/WSN/33 (H1N1)) was “dramatically reduced virus yields” and the IC50 (Bac-NA^WT) was 3.4 µM. For the same compound, the IC50 [1] was 5.7 µM, the influenza-induced cytopathic effect (A/WSN/33) was “inhibited the influenza-induced cytopathic effect” and the EC50 [2] was 2.7 µM.
